{
  "source": "patent US8785419B2",
  "about": "“Cavity induced allosteric modification of intermolecular interactions and methods of identifying compounds that effect the same” (The Trustees Of The University Of Pennsylvania, priority 1998, dated 2014)",
  "system": "T cell activation associated with MHC/antigen/TCR complexes",
  "test": "In vitro T cell activation assays",
  "format": "cell-based",
  "data": [
    {"smiles": "O=C(CNC(=O)N1CCCC1)NNC(=O)Nc1ccc2ccccc2c1", "note": "[Formula IV]", "values": [
      {"measurement": "activity in in vitro T cell activation assays", "value": "showed activity"}
    ]}
  ]
}
